For one molecule, assayed potency results are on record in patent US4388235A, “Synthesis of peptides” (Armour Pharmaceutical Company, priority 1982, dated 1983).

The nature of the experiment: biological potency assay of the purified product (MRC units). As to conditions: freeze-dried product of Example 1. It counts as in vivo.

SMILES strings stand for the structures. Positions of bridges follow the written chain, without caps; N, C: chain ends. Residues, ends and D or L forms follow the SMILES beside them.

Molecule `CC(C)C[C@H](NC(=O)[C@H](CCCCN)NC(=O)CNC(=O)[C@H](CC(C)C)NC(=O)[C@@H](NC(=O)[C@@H]1CSSC[C@H](N)C(=O)N[C@@H](CO)C(=O)N[C@@H](CC(N)=O)C(=O)N[C@@H](CC(C)C)C(=O)N[C@@H](CO)C(=O)N[C@@H]([C@@H](C)O)C(=O)N1)C(C)C)C(=O)N[C@@H](CO)C(=O)N[C@@H](CCC(N)=O)C(=O)N[C@@H](CCC(=O)O)C(=O)N[C@@H](Cc1c[nH]cn1)C(=O)N[C@@H](CCCCN)C(=O)N[C@@H](CC(C)C)C(=O)N[C@@H](CCC(N)=O)C(=O)N[C@H](C(=O)N[C@@H](Cc1ccc(O)cc1)C(=O)N1CCC[C@H]1C(=O)N[C@@H](CCCNC(=N)N)C(=O)N[C@H](C(=O)N[C@@H](CC(N)=O)C(=O)N[C@H](C(=O)NCC(=O)N[C@@H](CO)C(=O)NCC(=O)N[C@H](C(=O)N1CCC[C@H]1C(N)=O)[C@@H](C)O)[C@@H](C)O)[C@@H](C)O)[C@@H](C)O` [des Leu^16 -SCT, Des-Leu^16 -salmon calcitonin] (H-CSNLSTCVLGKLSQEHKLQTYPRTNTGSGTP-NH2; disulfide 1-7) had an assayed potency of 580 MRC units per mg.
